Consider six compounds from ChEMBL document CHEMBL4402519, “The Mediterranean Diet as source of bioactive compounds with multi-targeting anti-cancer profile” (Eur J Med Chem, 2019).

In brackets after ≈: the same amount, converted by molar mass.

The test system of one assay is HL-60. Kind of assay: Growth inhibition of human HL60 cells after 72 hrs by MTT assay. Format: functional, cell-based. Conditions: HL-60, 72 h.
Assay [1] deals with PC-3. Put plainly: Antiproliferative activity against human PC3 cells after 24 hrs by MTT assay. The class given is functional, cell-based. Conditions: PC-3, 24 h. In general terms: Tetrazolium dyes change colour on reduction, which living cells bring about.
Assay [2] deals with PC-3. Put plainly: Antiproliferative activity against human PC3 cells after 48 hrs by MTT assay. The class given is functional, cell-based. As to conditions: PC-3, 48 h.
The test system of assay [3] is COLO 205. Put plainly: Induction of apoptosis in human COLO205 cells after 24 hrs relative to control. The class given is functional.
In assay [4] the test system is COLO 205. Put plainly: Induction of apoptosis in human COLO205 cells after 24 hrs. The class given is functional, cell-based. Conditions: COLO 205, 24 h.

The term IC50 denotes the concentration at which inhibition is half-maximal. The low end stands for greater potency, the high end for weaker potency. `O=C1c2c(O)cc(O)cc2O[C@H](c2ccc(O)c(O)c2)[C@H]1O` [(+)-TAXIFOLIN] came in with an IC50 with HL-60 of 0.01 to 0.94 µg/mL (≈ 0.0329 to 3.09 µM). Turning to `COc1ccc([C@@H]2CC(=O)c3c(O)cc(O)cc3O2)cc1O` [HESPERETIN], the IC50 with PC-3 [1] is 90 µM; with PC-3 [2], 40 µM.

Turning to `COc1ccc(-c2cc(=O)c3c(OC)c(OC)c(OC)c(OC)c3o2)cc1OC` [NOBILETIN], the IC50 in the assay with HL-60 fell in the range of 0.01 to 0.94 µg/mL (≈ 0.0249 to 2.34 µM).

On to `O=c1c(O)c(-c2ccc(O)c(O)c2)oc2cc(O)cc(O)c12` [QUERCETIN], for which the half-maximal inhibitory concentration (IC50) in the assay on HL-60 was in the range of 0.01 to 0.94 µg/mL (≈ 0.0331 to 3.11 µM). On to `CC(C)c1cc2c(c(O)c1O)[C@@]13CCCC(C)(C)[C@@H]1[C@H](OC3=O)[C@H]2O` [ROSMANOL], for which the Activity in the assay on COLO 205 [3] is reported as 51%. The compound also registered an IC50 with COLO 205 [4] of 42 µM. Regarding `COc1ccc(-c2cc(=O)c3c(OC)c(OC)c(OC)c(OC)c3o2)cc1` [TANGERETIN], the 50% inhibitory concentration (IC50) in the assay on HL-60 was in the range of 0.01 to 0.94 µg/mL (≈ 0.0269 to 2.52 µM).
